Test results as given in ChEMBL document CHEMBL1147473, “Synthesis of a bioprobe for elucidation of target molecule of spongean anti-malarial peroxides” (Bioorg Med Chem Lett, 2004).

System: Plasmodium falciparum
Assay: Inhibitory concentration against Plasmodium falciparum
Assay type: functional, organism-based

Structure (SMILES) | IC50
COC(=O)CC1CCC(CCCCCOC(=O)NCCCC[C@@H]2CCC3NC(=O)NC32)(OC)OO1 (some centres not stated) | 910 nM
COC(=O)CC1CCC(CCCCCOC(=O)NCCCCNC(=O)OCCOCCOC(=O)NCCCC[C@@H]2CCC3NC(=O)NC32)(OC)OO1 (some centres not stated) | 570 nM
